Laboratory results as given in ChEMBL document CHEMBL1146553, “Antiparasitic alkaloids from Psychotria klugii” (J Nat Prod, 2003).
≈ marks a conversion by molar mass, not a printed value. Calls of active or inactive are those of the source. The rule behind the calls is not given here.

What was measured:
Plasmodium falciparum [1] = test: Antimalarial activity against chloroquine-sensitive Plasmodium falciparum D6 by LDH reporter assay; type: functional, organism-based
Plasmodium falciparum [2] = test: Antimalarial activity against chloroquine-resistant Plasmodium falciparum W2 by LDH reporter assay; type: functional, organism-based
Vero [3] = test: Cytotoxicity against african green monkey Vero cells at 10 ug/ml; type: cell-based; conditions: chlorocebus sabaeus
in vitro [4] = conditions: monkey, Vero cells
Description: Selectivity index, ratio of IC50 for african green monkey (Cercopithecus aethiops) Vero cells to IC50 for chloroquine-resistant Plasmodium falciparum W2

in vitro [5] = conditions: monkey, Vero cells; remark: listed apart in the source
Description: Selectivity index, ratio of IC50 for african green monkey (Cercopithecus aethiops) Vero cells to IC50 for chloroquine-sensitive Plasmodium falciparum D6

Leishmania donovani = test: Antileishmanial activity against Leishmania donovani promastigotes after 72 hrs; type: functional, organism-based
BT-549 = test: Cytotoxicity against human BT549 cells; type: functional, cell-based
[6] = biological target: T1, Integrin alpha-L (Homo sapiens) (UniProt P20701); test: Inhibition of LFA1:CD11a/CD18/ICAM1- mediated aggregation in PMA-induced human HL60 cells; type: cell-based; conditions: HL-60
T1 sequence (whole entry): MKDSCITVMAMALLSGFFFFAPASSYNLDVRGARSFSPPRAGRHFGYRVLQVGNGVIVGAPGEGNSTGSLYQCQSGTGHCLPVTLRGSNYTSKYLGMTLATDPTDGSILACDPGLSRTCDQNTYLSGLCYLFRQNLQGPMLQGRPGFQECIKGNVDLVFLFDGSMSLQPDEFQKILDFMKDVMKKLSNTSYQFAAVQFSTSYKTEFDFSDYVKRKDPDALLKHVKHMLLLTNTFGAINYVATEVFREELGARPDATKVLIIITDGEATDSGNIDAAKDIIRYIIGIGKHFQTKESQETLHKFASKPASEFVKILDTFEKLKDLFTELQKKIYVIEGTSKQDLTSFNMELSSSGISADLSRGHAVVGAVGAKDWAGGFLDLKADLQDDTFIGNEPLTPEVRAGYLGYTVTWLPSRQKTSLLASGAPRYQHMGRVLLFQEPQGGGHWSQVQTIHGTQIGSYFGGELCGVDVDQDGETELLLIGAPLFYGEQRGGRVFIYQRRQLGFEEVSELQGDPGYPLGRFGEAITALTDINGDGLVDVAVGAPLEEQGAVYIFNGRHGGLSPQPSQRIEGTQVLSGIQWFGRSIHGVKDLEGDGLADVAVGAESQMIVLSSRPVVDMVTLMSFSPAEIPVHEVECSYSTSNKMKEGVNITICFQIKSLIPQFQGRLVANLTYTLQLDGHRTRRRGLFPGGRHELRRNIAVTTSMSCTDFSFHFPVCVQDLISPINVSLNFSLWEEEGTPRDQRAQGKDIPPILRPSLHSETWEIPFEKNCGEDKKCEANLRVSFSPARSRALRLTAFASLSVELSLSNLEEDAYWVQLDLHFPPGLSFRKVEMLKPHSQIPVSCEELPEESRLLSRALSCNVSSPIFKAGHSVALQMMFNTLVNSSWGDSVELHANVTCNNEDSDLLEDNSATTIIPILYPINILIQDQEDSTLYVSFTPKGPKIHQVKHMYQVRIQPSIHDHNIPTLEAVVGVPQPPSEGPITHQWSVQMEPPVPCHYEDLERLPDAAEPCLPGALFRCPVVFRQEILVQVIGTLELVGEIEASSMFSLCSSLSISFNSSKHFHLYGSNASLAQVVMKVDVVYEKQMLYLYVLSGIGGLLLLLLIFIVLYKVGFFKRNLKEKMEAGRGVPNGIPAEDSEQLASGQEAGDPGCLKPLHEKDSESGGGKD

SK-OV-3 = test: Cytotoxicity against human SKOV3 cells; type: functional, cell-based
HL-60 = test: Cytotoxicity against human HL60 cells by XTT assay; type: functional, cell-based
KB = test: Cytotoxicity against human KB cells; type: functional, cell-based
Vero [7] = test: Cytotoxicity against african green monkey Vero cells; type: cell-based; conditions: chlorocebus sabaeus
SK-MEL = test: Cytotoxicity against human SK-MEL cells; type: functional, cell-based
[8] = Specific index, ratio of IC50 for human HL60 cells to MIC for LFA1:CD11a/CD18/ICAM1- mediated aggregation in PMA-induced human HL60 cells; type: functional, HL-60
[9] = Specific index, ratio of IC50 for human HL60 cells to MIC for LFA1:CD11a/CD18/ICAM1-mediated human HL60 cell adhesion to human HeLa cells; type: functional
[10] = biological target: T1, Integrin alpha-L (Homo sapiens); test: Inhibition of LFA1:CD11a/CD18/ICAM1-mediated human HL60 cell adhesion to human HeLa cells expressing ICAM1 by fluorescence analysis; type: cell-based

SMILES	IC50 (Plasmodium falciparum [1]) [µg/mL]	IC50 (Plasmodium falciparum [2]) [µg/mL]	Activity (Vero [3])	selectivity ratio (in vitro [4])	selectivity ratio (in vitro [5])	IC50 (Leishmania donovani) [µg/mL]	IC90 (Leishmania donovani) [µg/mL]	IC50 (BT-549) [µg/mL]	MIC [6] [µg/mL]	IC50 (SK-OV-3) [µg/mL]	IC50 (HL-60) [µg/mL]	IC50 (KB) [µg/mL]	IC50 (Vero [7]) [µg/mL]	IC50 (SK-MEL) [µg/mL]	Ratio [8]	Ratio [9]	Activity [10]
CC[C@H]1CN2CCc3cc(OC)c(OC)cc3[C@@H]2C[C@@H]1C[C@@H]1NCCc2cc(O)c(O)cc21	1.5 (≈ 3.31 µM)	3.07 (≈ 6.78 µM)	Non-toxic	> 3	> 7	7.5 (≈ 16.6 µM)	19 (≈ 42 µM)	–	–	–	–	–	–	–	–	–	–
C[C@@H]1[C@H](O)[C@@H](C)/C=C/C=C/C=C/C=C/C=C/C=C/C=C/[C@H](O[C@@H]2O[C@H](C)[C@@H](O)[C@H](N)[C@@H]2O)C[C@@H]2O[C@](O)(C[C@@H](O)C[C@@H](O)[C@H](O)CC[C@@H](O)C[C@@H](O)CC(=O)O[C@H]1C)C[C@H](O)[C@H]2C(=O)O [AMPHOTERICIN B]	–	–	–	–	–	0.17 (≈ 0.184 µM)	0.28 (≈ 0.303 µM)	–	–	–	–	–	–	–	–	–	–
C[C@@H]1CC[C@H]2[C@@H](C)C(=O)O[C@@H]3O[C@@]4(C)CC[C@@H]1[C@]32OO4 [ARTEMISININ]	0.0143 (≈ 0.0506 µM)	0.0085 (≈ 0.0301 µM)	Non-toxic	> 1180	> 699	–	–	–	–	–	–	–	–	–	–	–	–
CC[C@H]1CN2CCc3cc(OC)c(OC)cc3[C@@H]2C[C@@H]1C[C@H]1NCCc2cc(O)c(OC)cc21 [CEPHAELINE]	0.038 (≈ 0.0814 µM)	0.0277 (≈ 0.0594 µM)	–	193	132	0.03 (≈ 0.0643 µM)	1.5 (≈ 3.21 µM)	0.86 (≈ 1.84 µM)	6.9 (≈ 14.8 µM)	0.18 (≈ 0.386 µM)	14.9 (≈ 31.9 µM)	0.33 (≈ 0.707 µM)	5.3 (≈ 11.4 µM)	0.25 (≈ 0.536 µM)	2.17	–	–
CCN(CC)CCCC(C)Nc1ccnc2cc(Cl)ccc12 (centres undefined) [CHLOROQUINE]	–	–	Non-toxic	–	–	–	–	–	–	–	–	–	–	–	–	–	–
C=C1[C@@H](C)[C@H]2[C@H](Cc3ccccc3)NC(=O)[C@]23OC(=O)/C=C/[C@H](O)CCC[C@@H](C)C/C=C/[C@H]3[C@@H]1O [CYTOCHALASIN B]	–	–	–	–	–	–	–	–	2.5 (≈ 5.21 µM)	–	> 30	–	–	–	13	>5.5	–
COc1cccc2c1C(=O)c1c(O)c3c(c(O)c1C2=O)C[C@@](O)(C(=O)CO)C[C@@H]3O[C@H]1C[C@H](N)[C@H](O)[C@H](C)O1 [DOXORUBICIN]	–	–	–	–	–	–	–	1 (≈ 1.84 µM)	–	1.53 (≈ 2.81 µM)	–	1.7 (≈ 3.13 µM)	–	1.57 (≈ 2.89 µM)	–	–	–
CC[C@H]1CN2CCc3cc(OC)c(OC)cc3[C@@H]2C[C@@H]1C[C@H]1NCCc2cc(OC)c(OC)cc21 [EMETINE]	0.0727 (≈ 0.151 µM)	0.078 (≈ 0.162 µM)	–	5	6	0.03 (≈ 0.0624 µM)	0.13 (≈ 0.27 µM)	–	0.26 (≈ 0.541 µM)	–	0.38 (≈ 0.791 µM)	–	0.42 (≈ 0.874 µM)	–	1.53	–	–
CC[C@H]1CN2CCc3cc(OC)c(OC)cc3[C@@H]2C[C@@H]1C[C@@H]1NCCc2cc(O)c(OC)cc21 [ISOCEPHAELINE]	0.187 (≈ 0.4 µM)	0.29 (≈ 0.621 µM)	Non-toxic	> 35	> 54	0.45 (≈ 0.964 µM)	0.98 (≈ 2.1 µM)	> 10	–	> 10	–	> 10	–	> 10	–	–	–
CC[C@H]1CN2CCc3cc(O)c(OC)cc3[C@@H]2C[C@@H]1C[C@@]1(O)NCCc2cc(O)c(OC)cc21 [KLUGINE]	0.0377 (≈ 0.0805 µM)	0.0463 (≈ 0.0988 µM)	Non-toxic	> 217	> 265	0.4 (≈ 0.854 µM)	2.5 (≈ 5.34 µM)	> 10	20.8 (≈ 44.4 µM)	> 10	25 (≈ 53.4 µM)	> 10	–	> 10	1.2	–	inactive
N=C(N)c1ccc(OCCCCCOc2ccc(C(=N)N)cc2)cc1 [PENTAMIDINE]	–	–	–	–	–	–	2.4 (≈ 7.05 µM)	–	–	–	–	–	–	–	–	–	–
